Values of other authors, collected in patent publication US11752152B1, “Pharmaceutical formulations of imatinib and uses thereof” (Exvastat Ltd, priority 2022, dated 2023).

Test system: animal models of sepsis, acute lung injury and impaired microcirculatory perfusion
Conditions: variety of animal models

Structure (SMILES): Cc1ccc(NC(=O)c2ccc(CN3CCN(C)CC3)cc2)cc1Nc1nccc(-c2cccnc2)n1 [Imatinib, 4-[(4-methylpiperazin-1-yl)methyl]-N-[4-methyl-3-[(4-pyridin-3-ylpyrimidin-2-yl)amino]phenyl]benzamide]
- effect on endothelial barrier, vascular leak and inflammation: protect the endothelial barrier, prevent vascular leak and reduce inflammation
